In PubChem BioAssay (NCI):
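Compound exposure: 48 hours, 5 concentrations, 96-well plates. At the TGI there is no net growth.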 Where a SMILES comes first, the peptide text is derived from it. The star is where a group is joined. Boc = CC(C)(C)OC(=O)*

Columns and labels:
Experiment in all cases: NCI tumour cell line growth inhibition, 48 h
NCI-H226 lung = tested on: NCI-H226 lung
PC-3 prostate = tested on: PC-3 prostate
CCRF-CEM leukemia = tested on: CCRF-CEM leukemia
786-0 renal = tested on: 786-0 renal
UO-31 renal = tested on: UO-31 renal
SF-295 CNS = tested on: SF-295 CNS
RXF 393 renal = tested on: RXF 393 renal
OVCAR-8 ovarian = tested on: OVCAR-8 ovarian
SK-MEL-5 melanoma = tested on: SK-MEL-5 melanoma
NCI-H23 lung = tested on: NCI-H23 lung
HS 578T breast = tested on: HS 578T breast
HOP-62 NSCLC = tested on: HOP-62 NSCLC
RPMI-8226 leukemia = tested on: RPMI-8226 leukemia
SNB-75 CNS = tested on: SNB-75 CNS
A549 NSCLC = tested on: A549 NSCLC

SMILES	TGI (NCI-H226 lung) [µM]	TGI (PC-3 prostate) [µM]	TGI (CCRF-CEM leukemia) [µM]	TGI (786-0 renal) [µM]	TGI (UO-31 renal) [µM]	TGI (SF-295 CNS) [µM]	TGI (RXF 393 renal) [µM]	TGI (OVCAR-8 ovarian) [µM]	TGI (SK-MEL-5 melanoma) [µM]	TGI (NCI-H23 lung) [µM]	TGI (HS 578T breast) [µM]	TGI (HOP-62 NSCLC) [µM]	TGI (RPMI-8226 leukemia) [µM]	TGI (SNB-75 CNS) [µM]	TGI (A549 NSCLC) [µM]
Brc1c2c(c(Br)c3nsnc13)N=S=N2	> 76.6	> 100	5.2	41.6	56.7	> 70.8	35.9	79.7	42.5	> 69.1	75	15.9	78.1	63.7	> 100
CCOC(=O)c1cc(C2=CCNC2=O)c(-c2cc(C)no2)[nH]1	> 100	> 100	> 100	> 100	> 100	> 100	> 100	> 100	> 100	> 100	> 100	> 100	> 100	> 100	> 100
CCOc1cc(/C=N/c2nc3cc4sc(/N=C/c5ccc(O)c(OCC)c5)nc4cc3s2)ccc1O	> 100	> 100		> 100	> 100	> 100	> 100	> 100	> 100	> 100	> 100	> 100	> 100	> 100	> 100
Clc1cc2nc(C3CCCCO3)[nH]c2cc1Cl (stereo not given)	> 100	> 100	> 100	> 91.9	> 53.3	> 100	> 52.6	> 73	> 100	> 59.8	> 71.3	> 100	> 73.4	58.4	> 100
CC1=NNC(=O)C1C1CC(c2c[nH]c3ccccc23)=NN(c2ccccc2)C1=O (stereo not given)	> 100	> 100	72.6	57.7	> 100	> 100	> 100	> 100	> 100	> 100	> 100	> 100	> 100	> 100	> 100
COc1ccc2nc3cc([N+](=O)[O-])ccc3c(NNc3ccc([N+](=O)[O-])cc3)c2c1	> 56.4	> 100	98.6	> 100	> 100	> 100	> 100	> 100	61.4	> 100	> 100	> 100	> 71.5	> 100	> 100
N#Cc1sc2c(c1OC(=O)c1ccc(Cl)cc1)c(=O)n(-c1ccccc1)c(=S)n2-c1ccccc1	86.7	80.2	31.2	63.6		65.9	50.7	67.1	38.8	65.8	56.2	82.7	45.3	> 100	> 100
CCOC(=O)NC(Nc1ccc(S(=O)(=O)Nc2ccc(OC)nn2)cc1)(C(F)(F)F)C(F)(F)F	75.9	> 100	70.4	59	> 100	> 100	34.8	> 100	32	96.4	> 100	59.6	54.8	> 100	> 100
CC(NC(=O)C(N)CC(=O)O)C(=O)OC12CC3CC(CC(C3)C1)C2 (stereo not given)		> 100	> 100	> 100	> 100		> 100	> 100	> 100	> 100	> 100		> 100	> 100	> 100
Cc1nn(C(=O)c2ccc(Cl)cc2)c2c1C(c1ccccc1O)SC(N)=N2 (stereo not given)	> 10	> 10	> 10	> 10		> 10	> 10	> 10	> 10	> 10	> 10	> 10	> 10	> 10	> 10
COc1ccc(OC)c(N=Cc2cc(OC)c(OC)c(OC)c2)c1	> 100	> 100	66.4	> 100	> 100	> 100	> 100	> 100	> 100	> 100	> 100	> 100	> 76.6	> 100	> 100
CCOC(CN(C)C(=O)Nc1ccc(Cl)c(Cl)c1)OCC	> 10	> 10	> 10	> 10	> 10	> 10	> 10	> 10	> 10	> 10	> 10	> 10	> 10	> 10	> 10
CC(C)(C)C(O)CC(O)(C(F)(F)F)C(F)(F)F (stereo not given)	> 100	> 100	> 100	> 100	> 100	> 100	> 100	> 100	> 100	> 100	> 100	> 100	> 100	> 100	> 100
O=C1C=CC(=O)c2c(O)c(NCCO)c(Cl)c(O)c21	> 10	> 10	> 10	> 10	> 10	4.81	3.46	> 10	2.75	5.59	> 10	> 8.35	> 10	> 6.54	3.78
O=C(O)CCNc1ncc2c(n1)-c1ccccc1OC2	> 100	> 100	> 100	> 100	> 100	> 100	> 100	> 100	> 100	> 100	> 100	> 100	> 100	> 100	> 100
O=C(NC(=O)c1ccccc1)OC(c1ccccc1)C1CO1 (stereo not given)	> 100	> 100	> 100	> 100	> 100	> 100	> 100	> 100	> 100	> 100	> 100	> 100	> 100	> 100	> 100

SMILES	TGI (NCI-H226 lung) [µM]	TGI (PC-3 prostate) [µM]	TGI (CCRF-CEM leukemia) [µM]	TGI (786-0 renal) [µM]	TGI (UO-31 renal) [µM]	TGI (SF-295 CNS) [µM]	TGI (RXF 393 renal) [µM]	TGI (OVCAR-8 ovarian) [µM]	TGI (SK-MEL-5 melanoma) [µM]	TGI (NCI-H23 lung) [µM]	TGI (HS 578T breast) [µM]	TGI (HOP-62 NSCLC) [µM]	TGI (RPMI-8226 leukemia) [µM]	TGI (SNB-75 CNS) [µM]	TGI (A549 NSCLC) [µM]
CC1(C)CCCC2CC2CCC(C)(C)C1=O (stereo not given)	> 100	> 100	38.4	86.6	> 100	> 100	87.7	> 100	> 100	> 100	> 100	> 100	68.1	> 100	> 100
CCCCCCc1cc2cc(C(=O)NCc3ccccc3)c(=N)oc2cc1O	> 100	> 100	> 100	> 100			> 100	> 100	> 100	> 100	> 100	> 100	> 100	> 100	> 100
Cc1ccc(C(=O)O)c(/C=C2\Cc3cc(C)cc(C)c3C2=O)c1	> 100	> 100	> 100	> 100	> 100	> 100	> 100	> 100	> 100		> 100	> 100	> 100	> 100	> 100
O=C(CCc1ccc(O)c(O)c1)NCCc1ccccc1	> 100	> 51.9	> 90.8	> 100	> 74.5	> 100	> 100	> 100	> 48.7	> 100	> 100	> 100	> 76.1	> 100	> 100
CN1CN(c2ccccc2)C2(CCN(C3Nc4ccccc4O3)CC2)C1=O (stereo not given)	50.3	45.2	57.6	49.6	69.8	33.6	35.5	82.1	32	54.9	37.7	31.1	58	62.3	> 100
O=C(/C=C\c1ccsc1)c1ccccc1	34.1	24.1	3.41	19.7	19.2	29.3	18.7	27.2	27.3	15.6	20.4	30.7	7.32	24.3	8.48
COC(=O)CNC(=O)CNC(=O)CSc1nnc(COc2ccc(Cl)cc2)n1-c1ccccc1	> 100	> 100	57.4	> 100	48.6	> 100	36.8	> 100	41	> 100	78.3	> 100	78.1	60.2	> 100
O=c1sc(Nc2ccc3ccccc3c2Cl)nc2ccccc12		> 100	> 100	> 100	> 100	> 100	> 100		> 100	> 100	> 100	> 100	> 100	> 100	> 100
O=C1NC(=S)N/C1=C\c1ccc(Cl)cc1	> 100	> 100	> 100	> 100	> 100	> 100	> 100	> 100	> 100	> 100	> 100	> 100	> 100	> 100	> 100
Cc1cccc2c(N)c3cccc(C(=O)NCC[N+](C)(C)Cc4ccc(S(C)(=O)=O)cc4)c3nc12	> 100	> 100	> 62	> 100	> 100	> 100	> 100	> 100	> 100	> 100	> 100	> 100	> 45.4	> 100	> 100
CC(=O)c1cc2c(s1)C(=O)c1ccsc1C2=O	3.75	1.15	1.3	4.16	0.597	0.307	0.683	1.59	0.262	0.337	0.561	0.916	49.7	0.367	4.2
CC(NC(=O)C1CCCN1C(=O)CNC(=O)OC(C)(C)C)C(=O)O (stereo not drawn) (Boc-Gly-Pro-Ala-OH; configuration not given here)	> 100	> 100		> 100	> 100	> 100	> 100	> 100	> 100	> 100	> 100	> 100	> 100	> 100	> 100
CC(O)CC(=O)CO[C@H]1[C@H](O)[C@@H](O)[C@@H](O)[C@@H]2NC(=O)c3c(cc4c(c3O)OCO4)[C@H]21 (stereo not given in full)	1.49	0.303		0.485	0.588	0.314	0.131	1.53	0.0623	0.457	0.153	0.319	0.147	0.404	0.352
COc1ccc(-c2[nH]c(-c3ccc(OC)cc3)c(-c3ccccn3)c2-c2ccccn2)cc1	> 100	> 100	> 100	> 100	> 100	> 100	> 100	> 100	32.2	> 100	> 100		69.5	> 100	> 100
CC(=O)Nc1ncc2c(n1)-c1ccccc1OC2c1ccccc1 (stereo not given)	52.1	> 100	> 100	38.2	> 100	> 100	63.2	66.2	> 100	> 100	55.4		> 100	40.5	> 100
